CCCc1nn(C)c2c(NCc3ccc(OC)c(Cl)c3)nc(CCC(=O)O)nc12 [Example 2, 3-[7-(3-chloro-4-methoxybenzylamino)-1-methyl-3-propyl-1H-pyrazolo[4,3-d]pyrimidin-5-yl]propionic acid]
melting point: 178 °C

Source: patent publication US20040023991A1, “Use of pyrazolo[4,3-d]pyrimidines” (priority 2000, published 2004)
